From patent US5593991A, “Imidazole compounds, use and process of making” (priority 1995, dated 1997)

The molecules below were run on human PGHS-2 protein expression (assay: Prostoglandin endoperoxide synthase-2 (PGHS-2) protein expression in LPS stimulated human monocytes). Conditions: rank order potency similar to that for inhibiting cytokine production.
Type: cell-based
Experimental: The following assay describes a method for determining the inhibitory effects of compounds of Formula (I) on human PGHS-2 protein expression in LPS stimulated human monocytes
Human peripheral blood monocytes were isolated from buffy coats by centrifugation through Ficoll and Percoll gradients. Cells were seeded at 2×10^6 /well in 24 well plates and allowed to adhere for 1 hour in RPMI supplemented with 1% human AB serum, 20 mM L-glutamine, Penicillin-Streptomycin and 10 mM HEPES. Compounds were added at various concentrations and incubated at 37° C. for 10 minutes. LPS was added at 50 ng/well (to induce enzyme expression) and incubated overnight at 37° C. The supernatant was removed and cells washed once in cold PBS. The cells were lysed in 100 μl of cold lysis buffer(50 mM Tris/HCl pH 7.5, 150 mM NaCl, 1% NP40, 0.5% sodium deoxycholate, 0.1% SDS, […] DNAse, 0.1% TRITON X-100, 1 mM PMSF, 1 mM leupeptin, 1 mM pepstatin). The lysate was centrifuged (10,000×g for 10 min. at 4° C.) to remove debris and the soluble fraction was subjected to SDS PAGE. analysis (12% gel). Protein separated on the gel were transferred onto nitrocellulose membrane by electrophoretic means for 2 hours at 60 volts. The membrane was pretreated for one hour in PBS/0.1% Tween 20 with 5% non-fat dry milk. After washing 3 times in PBS/Tween buffer, the membrane was incubated with a 1:2000 dilution of a monospecific antiserum to PGHS-2 or a 1:1000 dilution of an antiserum to PGHs-1 in PBS/Tween with 1% BSA for one hour with continuous shaking. The membrane was washed 3X in PBS/Tween and then incubated with a 1:3000 dilution of horseradish peroxidase conjugated donkey antiserum to rabbit Ig (Amersham) in PBS/Tween with 1% BSA for one hour with continuous shaking. The membrane was then washed 3X in PBS/Tween and the ECL immunodetection system (Amersham) was used to detect the level of expression of prostaglandin endoperoxide synthases-2.

| Structure (SMILES) | inhibited LPS induced PGHS-2 protein expression (active) |
| --- | --- |
| Fc1ccc(-c2nc3n(c2-c2ccncc2)CCS3)cc1 [6-(4-Fluorophenyl)-2,3-dihydro-5-(4-pyridinyl)imidazo[2,1-b]thiazole] | active |
| C[C@@H]1C[C@H]2[C@@H]3CCC4=CC(=O)C=C[C@]4(C)[C@@]3(F)[C@@H](O)C[C@]2(C)[C@@]1(O)C(=O)CO [Dexamethasone] | active |
| Fc1ccc(-c2ncn(CCCN3CCOCC3)c2-c2ccncc2)cc1 [Example 1, 1-[3-(4-Morpholinyl)propyl]-4-(4-fluorophenyl)-5-(4-pyridyl)imidazole] | active |

Same assay, conditions: up to 10 uM

| Structure (SMILES) | inhibition of LPS induced PGHS-2 protein expression (inactive) |
| --- | --- |
| C[S+]([O-])c1ccc(-c2nc3n(c2-c2ccncc2)CCC3)cc1 (stereo not shown) [2-(4-Methylsulfinylphenyl)-3-(4-pyridyl)-6,7-dihydro-(5H)-pyrrolo[1,2-a]imidazole] | inactive |
| CC(Cc1ccc(O)c(O)c1)C(C)Cc1ccc(O)c(O)c1 (stereo not shown) [NDGA] | inactive |
| O=C1CCN(c2ccccc2)N1 [phenidone] | inactive |
| COc1ccc(C2CNC(=O)C2)cc1OC1CCCC1 (stereo not shown) [rolipram] | inactive |
